The record followed here is US20150240295A1, “REACTIVE, LIPOPHILIC NUCLEOSIDE BUILDING BLOCKS FOR THE SYNTHESIS OF HYDROPHOBIC NUCLEIC ACIDS” (IONOVATION GMBH, priority 2012, published 2015).

One series concerns OVCAR-5. The series is described as follows: Oncological test, cell growth against OVCAR-5. It counts as cell-based, human. Particulars: FIGS. 10 and 11. An excerpt: (§1) FIGS. 10 to 17 show the activity of compounds ESP—2.2, ESP—2.5 and ESP—31 according to the invention as well as the comparative examples ESP—2 and ESP—3 (Table 4) in relation to the concentration employed against various different cancer cells. […] The x-axis depicts the molar concentration of the respective compound on a logarithmical scale.

The next series has as its system HCT-15 cells. Put plainly: Oncological test, cell growth against HCT-15. Conditions: for cell growth (inhibition / cytotoxic effect): FIGS. 14 and 15. In kind it is cell-based, human.
Description: as §1

The next series has as its system IGR-OV1. Put plainly: Oncological test, cell growth against IGR-OV1. Particulars: FIGS. 12 and 13. It counts as cell-based, human.
Description: as §1

The next series has as its system 786-0 cells. Put plainly: Oncological test, cell growth against 786-0. It counts as cell-based. Particulars: FIGS. 16 and 17.
Description: as §1

The subject of another series is various cancer cells. Put plainly: Oncological tests, summary of FIGS. 10 to 17. In kind it is cell-based. Conditions: ovarian, colon and kidney cancer cells.
Description: as §1

The term melting point denotes the temperature of the solid-liquid transition. Consider `COc1ccc(C(OC[C@H]2O[C@@H](n3cnc4c(=O)n(C/C=C(\C)CCC=C(C)C)cnc43)C[C@@H]2O)(c2ccccc2)c2ccc(OC)cc2)cc1` [Compound 4a, 9-((2R,4S,5R)-5-((Bis(4-methoxyphenyl)(phenyl)methoxy)-methyl)-4-hydroxytetrahydrofuran-2-yl)-1-((E)-3,7-di-methylocta-2,6-dienyl)-1H-purin-6(9H)-one], for which the melting point was 74 °C.

Take `O=c1cnn([C@@H]2O[C@H](CO)[C@@H](O)[C@H]2O)c(=O)[nH]1` [ESP—2, 6-azauridine, reference compound]: the “cell growth (inhibition / cytotoxic effect)” value is “no activity” in the series with OVCAR-5, “slight inhibition of the growth of the cells” with HCT-15 cells and “slight inhibition” in the series on IGR-OV1.

As for `CCCCCCCCCC1(CCCCCCCCC)OC2[C@@H](CO)O[C@@H](n3ccc(=O)[nH]c3=O)[C@H]2O1` (stereo partly drawn) [ESP—31], the “cell growth (inhibition / cytotoxic effect)” value with 786-0 cells was “cytotoxic effect”; with OVCAR-5, “cytotoxicity”; in the series on HCT-15 cells, “high cytotoxic activity”; in the series on IGR-OV1, “vast improvement with respect to the cytotoxic activity”.

In the case of `CCOC(=O)CC[C@@]1(C)OC2C(O1)[C@@H](COC(c1ccccc1)(c1ccccc1)c1ccc(OC)cc1)O[C@H]2n1ncc(=O)[nH]c1=O` (stereo partly drawn) [ESP—2.2], the “cell growth (inhibition / cytotoxic effect)” value in the series on OVCAR-5 is recorded as “inhibition of cell growth”; in the series with HCT-15 cells, “increased activity”; in the series on IGR-OV1 it was “activity of the compound could be increased”.

As to `CCCCCCCCCCCCCCCC1(CCCCCCCCCCCCCCC)OC2C(CO)OC(n3ccc(=O)[nH]c3=O)C2O1` (stereo not drawn) [Compound 25d, 1-(6-Hydroxymethyl-2,2-dipentadecyl-tetrahydro-furo[3,4-d][1,3]dioxol-4-yl)-1H-pyrimidin-2,4-dione], the melting point is 93 °C.

With `CCOC(=O)CC[C@]1(C)OC2[C@@H](CO)O[C@@H](n3ncc(=O)n(C/C=C(\C)CCC=C(C)CCC=C(C)C)c3=O)[C@H]2O1` (stereo partly drawn) [ESP—2.5], the “cell growth (inhibition / cytotoxic effect)” value is listed as “high cytotoxic effect” in the series with 786-0 cells, “high cytotoxicity” with OVCAR-5, “increased activity” in the series on HCT-15 cells and “improved inhibition effect” with IGR-OV1. In addition, the “activity / cytotoxicity against various cancer cells” value in the series on various cancer cells was “particular high cytotoxicity”. Besides, the “death of the cells” value in the series on HCT-15 cells (high dosage) was “over 50%”.

On to `CCCCCCCCCCCCCCCCCC1(CCCCCCCCCCCCCCCCC)OC2C(CO)OC(n3ccc(=O)[nH]c3=O)C2O1` (stereo not drawn) [Compound 25e, 1-(2,2-Diheptadecyl-6-hydroxymethyl-tetrahydro-furo[3,4-d][1,3]dioxol-4-yl)-1H-pyrimidin-2,4-dione], for which the melting point was determined as 89.7 °C.

Regarding `COc1ccc(C(OC[C@H]2O[C@@H](n3cnc4c(=O)n(C/C=C(\C)CC/C=C(\C)CCC=C(C)C)cnc43)C[C@@H]2O)(c2ccccc2)c2ccc(OC)cc2)cc1` [Compound 4b, 9-((2R,4S,5R)-5-((Bis(4-methoxyphenyl)(phenyl)methoxy)-methyl)-4-hydroxytetrahydrofuran-2-yl)-1-((2E,6E)-3,7,11-trimethyldodeca-2,6,10-trienyl)-1H-purin-6(9H)-on], the melting point is 68 °C.

Compound `CCCCCCCCCCCCCC1(CCCCCCCCCCCCC)O[C@@H]2[C@H](O1)[C@@H](CO)O[C@H]2n1ccc(=O)[nH]c1=O` [Compound 25c, 1-((3aR,4R,6R,6aR)-6-(hydroxymethyl)-2,2-ditridecyltetrahydrofuro[3,4-d][1,3]dioxol-4-yl)pyrimidin-2,4(1H,3H)-dione] registered a melting point of 90.1 °C.

For `O=c1ccn([C@@H]2O[C@H](CO)[C@@H](O)[C@H]2O)c(=O)[nH]1` [ESP—3, uridine, reference compound], the “cell growth (inhibition / cytotoxic effect)” value in the series with 786-0 cells is listed as “did not show any activity at all”; in the series on OVCAR-5, “no activity”; with IGR-OV1 it was “did not even cause a growth inhibition”.
